Earlier results in US20230240962A1, “METHOD FOR DYEING KERATINOUS MATERIAL, COMPRISING THE USE OF AN ORGANOSILICON COMPOUND, AN ALKYL(POLY)GLYCOSIDE, A DYEING COMPOUND AND A POST-TREATMENT AGENT” (Henkel AG & Co. KGaA, priority 2020, published 2023).

Settings: 25° C.

Row | solubility in water (in words) | SMILES | solubility in water
1 | – | O=C([O-])c1c(Cl)c(Cl)c(Cl)c(Cl)c1-c1c2c(Br)cc(=O)c(Br)c-2oc2c(Br)c(O)cc(Br)c12.O=C([O-])c1c(Cl)c(Cl)c(Cl)c(Cl)c1-c1c2c(Br)cc(=O)c(Br)c-2oc2c(Br)c(O)cc(Br)c12.[Na+].[Na+] [Acid Red 92, disodium salt of 3,4,5,6-tetrachloro-2-(1,4,5,8-tetrabromo-6-hydroxy-3-oxoxanthen-9-yl)benzoic acid] | greater than 10 g/L
2 | – | CCN(Cc1cccc(S(=O)(=O)[O-])c1)c1ccc(C(=C2C=CC(=[N+](CC)Cc3cccc(S(=O)(=O)[O-])c3)C=C2)c2ccccc2S(=O)(=O)[O-])cc1.[Na+].[Na+] [Acid Blue 9] | more than 20 wt. %
3 | – | O=S(=O)([O-])c1ccc(N=Nc2c(O)ccc3ccccc23)cc1.[Na+] [Acid Orange 7, sodium salt of 4-[(2-hydroxy-1-naphthyl)azo]benzene sulphonate] | more than 7 g/L
4 | – | Nc1cc(S(=O)(=O)[O-])cc2cc(S(=O)(=O)[O-])c(N=Nc3ccccc3)c(O)c12.[Na+].[Na+] [Acid Red 33, disodium salt of 5-amino-4-hydroxy-3-(phenylazo)-naphthalene-2,7-disulphonate] | 2500 µg/mL
5 | highly soluble | O=C([O-])C1=NN(c2ccc(S(=O)(=O)[O-])cc2)C(=O)C1N=Nc1ccc(S(=O)(=O)[O-])cc1.[Na+].[Na+].[Na+] (centres unmarked) [Acid Yellow 23, trisodium salt of 4,5-dihydro-5-oxo-1-(4-sulfophenyl)-4-((4-sulfophenyl)azo)-1H-pyrazole-3-carboxylic acid] | –
